For seven compounds, TGI and GI50 results are on record in PubChem BioAssay (NCI).

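Dose response: 5 concentrations. Exposure: 48 h. Format: 96-well plates. Endpoint: linear interpolation; highest concentration if not reached. GI50: concentration for 50% inhibition of growth. At the TGI there is no net growth.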 Bounds are passed on as bounds.

For orientation: TGI means the concentration giving total growth inhibition. Low values mean greater sensitivity of the cells, high ones lower sensitivity of the cells. A word on the GI50: it is the concentration giving 50% growth inhibition.

Among the test systems are HCC-2998 colon; SN12C renal; HOP-62 NSCLC; MDA-MB-435; SK-MEL-5 melanoma; UO-31 renal; A549 NSCLC; HL-60(TB) leukemia; HT29 colon; TK-10 renal.
Holding throughout (test): DTP human tumour cell line panel, 48 h

As to `Cc1ccc(C(=O)C(Cl)C(Cl)c2ccc(C)cc2)cc1` (configuration not stated), the TGI was 3.92 µM in the experiment with HCC-2998 colon; 3.88 µM in the experiment with SN12C renal; 45.4 µM in the experiment with HOP-62 NSCLC; 10.8 µM in the experiment with MDA-MB-435; 6.68 µM in the experiment with SK-MEL-5 melanoma; 3.73 µM in the experiment on UO-31 renal. For the same compound, the TGI in the experiment on A549 NSCLC was greater than 91.8 µM; with HL-60(TB) leukemia, 10 µM; with HT29 colon, 4.31 µM; with TK-10 renal, 8.13 µM.
For the compound `C=C[C@H]1CCC/C=C/[C@@H]2C[C@H](O)C[C@H]2[C@H](O)/C=C/C(=O)O1`, the 50% growth inhibitory concentration (GI50) was 0.0316 µM with HCC-2998 colon; 0.0374 µM with SN12C renal; 0.0488 µM in the experiment on HOP-62 NSCLC; 0.043 µM in the experiment with MDA-MB-435; less than 0.0129 µM in the experiment with SK-MEL-5 melanoma; 0.0341 µM with UO-31 renal. For the same compound, the GI50 with A549 NSCLC was 0.0415 µM; in the experiment on HL-60(TB) leukemia, 0.0347 µM; in the experiment on HT29 colon it was 0.0244 µM; in the experiment with TK-10 renal, 0.0393 µM. The TGI is greater than 100 µM in the experiment on SN12C renal; greater than 100 µM with MDA-MB-435; 0.0238 µM in the experiment on SK-MEL-5 melanoma; greater than 100 µM in the experiment on UO-31 renal; greater than 100 µM with A549 NSCLC; 0.234 µM in the experiment on HL-60(TB) leukemia. Moreover, the TGI was 0.0632 µM in the experiment on HT29 colon and 0.5 µM in the experiment with TK-10 renal.
`COc1ccc(CNc2c3ccccc3nc3ccc(OC)cc23)cc1`: the GI50 is 1.85 µM in the experiment on HCC-2998 colon; 3.31 µM with SN12C renal; 3.38 µM with HOP-62 NSCLC; 1.99 µM in the experiment with MDA-MB-435; 1.95 µM in the experiment with SK-MEL-5 melanoma; 1.93 µM in the experiment on UO-31 renal. In addition, the GI50 with A549 NSCLC is 2.59 µM; in the experiment with HL-60(TB) leukemia it was 2.15 µM; in the experiment with HT29 colon it was 2.11 µM; in the experiment with TK-10 renal it was 3.77 µM. The TGI with HCC-2998 colon amounted to 3.76 µM; with SN12C renal, 12.6 µM; with HOP-62 NSCLC, 15.4 µM; with MDA-MB-435 it was 6.32 µM; in the experiment with SK-MEL-5 melanoma it was 3.87 µM; with UO-31 renal, 9.13 µM. In addition, the TGI in the experiment with A549 NSCLC amounted to 7.46 µM; with HL-60(TB) leukemia, 4.73 µM; with HT29 colon it was 10.1 µM; in the experiment with TK-10 renal, 13.9 µM.
On to `NC(=O)c1ccc2c(-c3ccnc(NCCCO)n3)c(-c3ccc(F)cc3)nn2c1`, for which the GI50 in the experiment with HCC-2998 colon is greater than 25 µM; with SN12C renal it was greater than 25 µM; in the experiment on HOP-62 NSCLC it was greater than 25 µM; with MDA-MB-435, greater than 18.3 µM; in the experiment on SK-MEL-5 melanoma, greater than 25 µM; in the experiment on UO-31 renal it was 5.9 µM. For the same compound, the GI50 with A549 NSCLC is greater than 23 µM; in the experiment with HL-60(TB) leukemia, greater than 21.9 µM; with HT29 colon it was greater than 21.2 µM; with TK-10 renal, greater than 18.6 µM. In addition, the TGI in the experiment on HCC-2998 colon, in the experiment with SN12C renal, with HOP-62 NSCLC, in the experiment on MDA-MB-435, with SK-MEL-5 melanoma and in the experiment on UO-31 renal was greater than 25 µM each time. The TGI in the experiment with A549 NSCLC, in the experiment on HL-60(TB) leukemia, in the experiment on HT29 colon and in the experiment with TK-10 renal was greater than 25 µM throughout.
As to `Cc1cc(N2CCN(c3ccnc4cc(Cl)ccc34)CC2)nc(NC2CCCCC2)n1`, the GI50 in the experiment on HCC-2998 colon was 2 µM; in the experiment on SN12C renal, 1.82 µM; with HOP-62 NSCLC it was 2.02 µM; in the experiment with MDA-MB-435, 1.49 µM; with SK-MEL-5 melanoma it was 1.73 µM; with UO-31 renal, 1.4 µM. For the same compound, the GI50 with A549 NSCLC was 2.02 µM; with HL-60(TB) leukemia, 2.25 µM; with HT29 colon, 1.79 µM; in the experiment with TK-10 renal it was 1.87 µM. For the same compound, the TGI was determined as 3.84 µM in the experiment on HCC-2998 colon; 3.73 µM in the experiment with SN12C renal; 4.61 µM in the experiment with HOP-62 NSCLC; 2.96 µM with MDA-MB-435; 3.3 µM in the experiment on SK-MEL-5 melanoma; 3.13 µM with UO-31 renal. Further, the total growth inhibition concentration (TGI) in the experiment on A549 NSCLC turned out to be 4.48 µM; with HL-60(TB) leukemia, 5.32 µM; in the experiment with HT29 colon, 3.9 µM; with TK-10 renal, 3.54 µM.
Consider `Cc1ccc(-c2nc(N)nc3c2nnn3Cc2cccc(CO[C@H]3CCOC3)n2)o1`, for which the GI50 in the experiment with HCC-2998 colon was greater than 100 µM; in the experiment with SN12C renal it was greater than 100 µM; in the experiment with HOP-62 NSCLC it was greater than 100 µM; in the experiment on MDA-MB-435 it was greater than 100 µM; in the experiment with SK-MEL-5 melanoma, 53.6 µM; in the experiment with UO-31 renal, greater than 100 µM. Besides, the GI50 in the experiment with A549 NSCLC, in the experiment with HL-60(TB) leukemia, with HT29 colon and in the experiment with TK-10 renal was greater than 100 µM each time. For the same compound, the TGI in the experiment with HCC-2998 colon, in the experiment on SN12C renal, in the experiment on HOP-62 NSCLC, in the experiment on MDA-MB-435, in the experiment with SK-MEL-5 melanoma and with UO-31 renal was greater than 100 µM in each case. For the same compound, the TGI in the experiment with A549 NSCLC, in the experiment on HL-60(TB) leukemia, in the experiment with HT29 colon and with TK-10 renal was greater than 100 µM each time.
Take `O=C(N/N=C/c1ccccc1Cl)c1ccccc1Nc1ccnc(C(F)(F)F)c1`: the GI50 with HCC-2998 colon is 1.74 µM; in the experiment with SN12C renal, 1.27 µM; in the experiment on HOP-62 NSCLC, 1.31 µM; with MDA-MB-435, 1.71 µM; in the experiment with SK-MEL-5 melanoma it was 0.627 µM; in the experiment on UO-31 renal it was 1.92 µM. For the same compound, the GI50 in the experiment with A549 NSCLC is 3.01 µM; in the experiment on HL-60(TB) leukemia, 1.71 µM; with HT29 colon, 3.56 µM; with TK-10 renal, 0.673 µM. In addition, the TGI in the experiment on HCC-2998 colon amounted to 7.24 µM; with SN12C renal, 12.7 µM; in the experiment on HOP-62 NSCLC, 8.18 µM; with MDA-MB-435, 6.81 µM; in the experiment with SK-MEL-5 melanoma it was 2.71 µM; in the experiment with UO-31 renal, 6.49 µM. Moreover, the TGI in the experiment with A549 NSCLC is 8.91 µM; with HT29 colon, greater than 100 µM; in the experiment on TK-10 renal it was 3.87 µM.
